The values below come from ChEMBL document CHEMBL3091287, “The ameliorating effects of 2,3-dihydroxy-4-methoxyacetophenone on scopolamine-induced memory impairment in mice and its neuroprotective activity” (Bioorg Med Chem Lett, 2013).

A word on the IC50: it is the midpoint of a concentration-inhibition curve. One may read the inhibition as the share of the control response that was lost under treatment. For orientation: EC50 means the concentration giving half of the maximal effect.

Data set [1] can be described thus: Antioxidant activity assessed as hydrogen peroxide radical scavenging activity. In kind it is functional.
Data set [2] relates to Radical scavenging activity. Kind of data set: Antioxidant activity assessed as DPPH radical scavenging activity after 30 mins. In kind it is functional. For orientation: DPPH is a stable violet radical that fades when it is reduced.
Data set [3] has as its system Mus musculus. Kind of data set: Cognitive-enhancing effect in ICR mouse assessed as reduction of scopolamine-induced escape latency at 1 to 20 mg/kg, po administered 1 hr before scopolamine challenge measured on day 4 during trial 1 and 2 by Morris water maze test. In kind it is functional, organism-based.
In data set [4] the test system is HT-22. Kind of data set: Neuroprotective activity in mouse HT22 cells assessed as inhibition of glutamate-induced increase of intracellular calcium level at 10 to 100 uM after 2 hrs by Fura-2 AM assay. It is filed as functional, cell-based.
The test system of data set [5] is Mus musculus. Kind of data set: Cognitive-enhancing effect in ICR mouse assessed as reduction of scopolamine-induced escape latency at 1 to 20 mg/kg, po administered 1 hr before scopolamine challenge measured on day 3 during trial 1 and 2 by Morris water maze test. It is filed as functional, organism-based.
Data set [6] has as its system HT-22. Kind of data set: Neuroprotective activity in mouse HT22 cells assessed as inhibition of glutamate-induced cell death at 10 uM after 24 hrs by MTT assay. The following applies: HT-22, 24 h. It is filed as functional. (Tetrazolium dyes change colour on reduction, which living cells bring about.)
The subject of data set [7] is Mus musculus. Kind of data set: Cognitive-enhancing effect in ICR mouse assessed as reduction of scopolamine-induced increase in mean distance to platform at 1 to 50 mg/kg, po administered 1 hr before scopolamine challenge measured on day 4 by Morris water maze test. It is filed as functional, organism-based.
Data set [8] has as its system Mus musculus. Kind of data set: Cognitive-enhancing effect in ICR mouse assessed as reduction of scopolamine-induced escape latency at 50 mg/kg, po administered 1 hr before scopolamine challenge measured on day 2 to 4 during trial 1 and 2 by Morris water maze test. In kind it is functional, organism-based. More on the design: dose 50 mg/kg.
Data set [9] relates to Mus musculus. Kind of data set: Toxicity in ICR mouse assessed as motor ability by measuring reduction of scopolamine-induced swimming speed at 1 to 50 mg/kg, po administered 1 hr before scopolamine challenge measured on day 4 by Morris water maze test. In kind it is organism-based. More on the design: dose 1-50 mg/kg, route oral. The following applies: in vivo.
For data set [10], the system named is HT-22. Kind of data set: Neuroprotective activity in mouse HT22 cells assessed as inhibition of glutamate-induced cell death after 24 hrs by MTT assay. In kind it is functional, cell-based.
Data set [11] has as its system Mus musculus. Kind of data set: Cognitive-enhancing effect in ICR mouse assessed as reduction of scopolamine-induced escape latency at 40 mg/kg, po administered 1 hr before scopolamine challenge measured on day 3 during trial 1 and 2 by Morris water maze test. In kind it is functional, organism-based. Details: dose 40 mg/kg.

The source made the active and inactive calls. The calls are words filed in the database; no cut-off is given here.

For `O=C1O[C@H]([C@@H](O)CO)C(O)=C1O` [ASCORBIC ACID], the IC50 in data set [1] turned out to be 76.8 µM; in data set [2], 35.2 µM.
For `COc1ccc(C(C)=O)c(O)c1O`, the outcome in data set [3], in data set [7], in data set [8] and in data set [11] was Active. In addition, in data set [4], the inhibition result was “Active”. The result in [5] was inactive. Further, the inhibition at 10 µM in data set [6] amounted to 50%. Besides, the results for the IC50 in data set [1] and in [2] were 90.8 µM and 98.1 µM, respectively. The inhibition entry in [1], in data set [2] and in data set [10] was “Dose-dependent effect” in each case. The Activity result in data set [9] is “Non-toxic”. In [10] (HT-22, 24 h), the EC50 was 10.9 µM.
